Laboratory results taken from US20190015400A1, “Antifungal Compositions” (priority 2017, published 2019).

Key:
[1] = test system: C. albicans ATCC 10231 (strain B); test: Time-kill assay, POS and EBA; assay type: cell-based, Candida albicans; settings: drug alone (POS at concentration used in MICcombination; NYT, AMB at 1×MIC), inoculum 10^5
Experimental: The protocol for time-kill assays followed methods previously described with minor modifications. Yeast cultures were grown overnight in YEPD medium at 35° C. with shaking at 200 rpm. A working stock of fungal cells was made by diluting cultures in 1640 medium to an OD600 of 0.125 (˜1×10^6 CFU/mL). From the working stock, 100 μL of cells was added to 4.9 mL of RPMI 1640 medium in sterile culture tubes, making the starting fungal cell concentration ˜1×10^5 CFU/mL. Drug was then added to the fungal cells. […] Treated fungal cultures were incubated in the culture tubes at 35° C. with 200 rpm shaking for 24 h. Samples were aliquoted from the different treatments at regular time points (0, 3, 6, 9, 12, and 24 h) and plated in duplicate. For each time point, cultures were vortexed, 100 μL of culture was aspirated, and 10-fold serial dilutions were made in sterile ddH2O. From the appropriate dilutions, 100 μL of fungal suspension was spread on PDA plates and incubated at 35° C. for 48 h before colony counts were determined. At 24 h, 50 μL of 1 mM resazurin in phosphate buffered saline (PBS) was added to the treatments and incubated at 35° C. with 200 rpm shaking for 2 h in the dark for visual inspection. […] Experiments were performed in duplicate.

[2] = test system: C. glabrata ATCC 2001 (strain H); test: MIC and checkerboard assay, azoles + antihistamines; assay type: cell-based, Candida glabrata
Experimental: Determination of minimum inhibitory concentration (MIC) values. MIC values were recorded for all antifungals and antihistamines in order to determine the concentration range of compounds to be used in the checkerboard assays.
The MIC assays were done using the broth microdilution method as described in CLSI document M27-A3 with minor modifications. Yeast cultures were started by picking a colony from a PDA plate stored at 4° C. The colonies were grown in YEPD medium overnight at 35° C. with shaking at 200 rpm. In a 96-well plate compounds were diluted lengthwise along the plate in serial 2-fold dilutions in the RPMI 1640 medium. The yeast cultures were diluted in RPMI 1640 medium to an OD600 within the range of 0.12 and 0.15 (˜1×10^6 cells/mL). The fungal cells were further diluted by taking 25 μL of fungal cells and adding them to 10 mL of RPMI 1640 medium before adding 100 μL to plate (200 μL total volume). The plates were incubated at 35° C. for 48 h. Visual inspection of the wells for no growth was used to determine the MIC. All compounds were tested in duplicate (TABLES 6 and 7).
Checkerboard assays were done as previously described to determine the fractional inhibitory concentration index (FICI). 2-fold dilutions of the azole drug were made in RPMI 1640 medium lengthwise along the plate. For the antihistamine, 2-fold serial dilutions were made in sterile tubes with RPMI 1640 medium, then aliquoted into the plate. […] The maximal amount was used in the checkerboard assays if complete inhibition was not observed in the MIC assays. Cultures were started by picking a colony from a plate and growing in YEPD medium overnight at 35° C. with shaking at 200 rpm. Cultures were diluted in RPMI 1640 medium to an OD600 between 0.12 and 0.15 (˜1×10^6 cells/mL). Cells were then further diluted by taking 25 μL of cell suspension and adding to 10 mL of RPMI 1640 medium. After the drugs were added to the plate with 100 μL of medium, 100 μL of fungal cells were added. Plates were incubated at 35° C. for 48 h and visual inspection was used to determine wells with no growth. All experiments were carried out in duplicate. The FICI was calculated based on the formula below. The combinational effect of the 2 tested compounds were considered synergistic (SYN) if FICI≤0.5, additive (ADD) if 0.5<FICI≤4, and antagonistic if FICI>4 (TABLES 6-9).

[3] = test system: J774A.1 cells; test: Mammalian cytotoxicity assay, azoles and compound 2
Source text: David K. Orren (University of Kentucky, Lexington, Ky.) and Prof. David J. Feola (University of Kentucky, Lexington, Ky.), respectively.

[4] = test system: C. glabrata ATCC 2001 (strain H) biofilm; test: Biofilm disruption assay (XTT, SMIC90), POS and EBA; assay type: cell-based, Candida glabrata
Experimental: Biofilm disruption assays. […] Biofilm assays were performed in 96-well plates using XTT [2,3-bis(2-methoxy-4-nitro-5-sulfophenyl)-2H-tetrazolium-5-carboxanilide] to measure the viability of the biofilm as previously described. An overnight culture of yeast was grown at 35° C. in YEPD medium with shaking at 200 rpm. The overnight culture was diluted in RPMI 1640 medium to an OD600 between 0.12 and 0.15 to make a working stock. Working stock was transferred to the 96-well plate in 100 μL aliquots, leaving one column empty for the sterile control. The plates were incubated at 37° C. for 24 h to allow formation of the biofilm. The medium and planktonic cells from the plate were then aspirated. PBS was then used to wash any remaining planktonic cells off of the biofilm wells. 100 μL of PBS was aliquoted into wells and then removed. The wells were washed 3 times with PBS. […] Plates were incubated at 37° C. for 24 h. Finally, the plates were washed 3 times with PBS before adding 100 μL of XTT dye. The XTT was prepared by dissolving XTT at 0.5 mg/mL concentration in sterile PBS. Before adding to a plate, 1 μL of 10 mM menadione in acetone was added to 10 mL of the 0.5 mg/mL solution of XTT. After addition of XTT (containing menadione), the plates were incubated at 3 h at 37° C. in the dark. 80 μL of liquid from each well was transferred to a new plate. Plates were then read with a SpectraMax M5 plate reader (Molecular Devices, Sunnyvale, Calif., USA) for absorbance at 450 nm. For these experiments, we determined the sessile MIC (SMIC90), which is defined as the drug concentration required to inhibit the metabolic activity of biofilm by 90% compared to the growth control. The SMIC90 values were used to calculate the FICI as described above (TABLE 10). The plates used to determine the SMIC90 are provided in FIGS. 91A-H. Each assay was performed in duplicate.

Question: For `CC[C@@H]([C@H](C)O)n1ncn(-c2ccc(N3CCN(c4ccc(OC[C@@H]5CO[C@@](Cn6cncn6)(c6ccc(F)cc6F)C5)cc4)CC3)cc2)c1=O` [POS, posaconazole], which “CFU/mL at 24 h” value [1] is on record?
Answer: 10^8 CFU/mL

Question: And the MIC ([2]; Nakaseomyces glabratus, ATCC2001, drug alone)?
Answer: > 32 µg/mL

Question: What about the MIC in combination ([2]; combination POS + EBA, MIC of the labelled drug) of the same compound?
Answer: 0.5 µg/mL

Question: And the “fold decrease in MIC (combination vs alone)” value ([2]; combination POS + EBA, decrease for the labelled drug)?
Answer: 64 fold

Question: And the cell survival ([3]; drug alone at 8 μg/mL)?
Answer: 80±9%

Question: What about the cell survival ([3]; drug alone at 16 μg/mL) of the same compound?
Answer: ~46±3%

Question: What about the SMIC90 combo ([4]; combination POS + EBA, SMIC90 of the labelled drug) of the same compound?
Answer: 0.06 µg/mL

Question: What about the SMIC90 ([4]; drug alone) of the same compound?
Answer: > 32 µg/mL
